Data: patent US6239171A, “Tocotrienols and tocotrienol-like compounds and methods for their use” (Lipogenics, Inc., priority 1998, dated 2001)
Several values for one entry are separate records, joined by “and”; a condition that tells them apart may be missing. Equal values may be shown once.

Biological target: T1, HMG-CoA reductase (Homo sapiens, UniProt P04035)
T1 construct: hepatocytes isolated from livers of 8-week old female chickens; endogenous in cells; host or cells: primary chicken hepatocytes
T1 sequence (P04035 1-888): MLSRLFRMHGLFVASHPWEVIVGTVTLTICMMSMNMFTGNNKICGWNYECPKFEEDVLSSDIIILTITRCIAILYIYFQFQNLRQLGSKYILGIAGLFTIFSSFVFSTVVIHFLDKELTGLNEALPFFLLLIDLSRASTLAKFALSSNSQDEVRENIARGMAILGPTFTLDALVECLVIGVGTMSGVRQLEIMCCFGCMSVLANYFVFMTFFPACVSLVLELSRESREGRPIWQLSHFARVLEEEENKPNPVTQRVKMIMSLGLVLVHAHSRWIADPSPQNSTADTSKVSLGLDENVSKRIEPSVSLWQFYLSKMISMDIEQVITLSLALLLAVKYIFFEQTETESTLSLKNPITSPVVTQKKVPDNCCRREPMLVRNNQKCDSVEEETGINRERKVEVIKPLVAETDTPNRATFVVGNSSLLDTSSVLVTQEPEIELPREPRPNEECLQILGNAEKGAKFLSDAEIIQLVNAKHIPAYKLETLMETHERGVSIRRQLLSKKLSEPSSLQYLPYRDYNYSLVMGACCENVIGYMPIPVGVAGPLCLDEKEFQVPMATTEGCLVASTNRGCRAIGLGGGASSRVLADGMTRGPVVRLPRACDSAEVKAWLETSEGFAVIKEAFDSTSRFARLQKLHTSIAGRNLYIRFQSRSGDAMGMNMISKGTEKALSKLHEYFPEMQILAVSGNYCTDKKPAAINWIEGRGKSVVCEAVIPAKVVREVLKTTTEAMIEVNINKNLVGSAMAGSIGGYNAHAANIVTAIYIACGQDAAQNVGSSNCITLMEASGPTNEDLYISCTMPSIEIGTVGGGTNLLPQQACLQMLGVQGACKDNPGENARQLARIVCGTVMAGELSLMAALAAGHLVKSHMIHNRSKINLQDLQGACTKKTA
Assay: HMG-CoA reductase activity in isolated chicken hepatocytes
Type: cell-based
Experimental: This study measured the effects of three tocotrienols isolated from rice bran on cholesterol-related enzyme activity in hepatocytes isolated from livers of 8-week old female chickens. The chickens were fed the chick mash diet for 8 weeks. They were then fasted for 40 hours and finally refed for 48 hours before sacrifice. The hepatocytes were then prepared following standard methods.
Each compound was isolated from TRF using the following protocol: A bond Elute amine column was equilibrated with 2 ml hexane. 10 mg of TRF (dissolved in 0.5 ml hexane) was bound to the amine column. The column was washed with 1 ml of hexane, then with 1 ml of 3% isopropanol in hexane. P-21 and P-25 were eluted off the column with 5% isopropanol in hexane. Then using 10% isopropanol in hexane, the impurity P-20 was eluted. α-tocotrienol was also tested.
We next measured the effects of various tocotrienols and tocotrienol-like compounds isolated from rice bran on the activity of HMG-CoA reductase. 20.0 g of stabilized rice bran was extracted with 200.0 ml of methanol to remove various UV absorbing impurities and tocotrienols (6.7 mg total). This step was repeated four times. The remaining residue was dried under vacuum in a desiccator and then heated at 180° C. for 2 hours under 30 psi pressure. Then the dried residue was extracted again with 200.0 ml methanol (3.4 mg). […]

SMILES: CC(C)=CCC/C(C)=C/CC/C(C)=C/CCC1CCc2cc(O)ccc2O1 (stereo not shown) [P25, 3,4-dihydro-2-(4,8,12-trimethyltrideca-3'(E),7'(E),11'-trienyl)-2H-1-benzopyran-6-ol]
- maximum reduction in activity of HMG-CoA reductase: 46.6% and 58.6%
